Data as given in publication PMC11831592, “Repurposing Linezolid in Conjunction with Histone Deacetylase Inhibitor Access in the Realm of Glioblastoma Therapies” (Journal of Medicinal Chemistry, 2025).

Assays:
[1] = tested on: T98G (MGMT-positive); experiment: CCK8 cell proliferation assay, T98G; type: cell-based; conditions: Homo sapiens, CCK8, 72 h
Experimental: Cell viability and drug cytotoxicity were determined by a CCK-8 kit (Cell Counting Kit-8, CK04-13, MD, USA) (CCK8, C0005, Target Molecule Corp., MA, USA) reagent. Cells were seeded 2 × 10^3 per well in the 96-well plate for 24 h, followed by treating at different concentrations of compounds for 72 h. Before the experiment, CCK8 was 10-fold diluted with the culture medium and then incubated with cells for 30 min. Finally, the OD was 450 nm absorbance and calculated for cell viability.

[2] = target: T1, HDAC6 (Homo sapiens, UniProt Q9UBN7); experiment: HDAC enzyme inhibition assay, HDAC6; type: biochemical; conditions: 10-dose, 3-fold serial dilution starting at 10 μM
T1 construct: purchased Reaction Biology Corporation, Malvern, PA (contract assay service)
T1 sequence (Q9UBN7 1-1215): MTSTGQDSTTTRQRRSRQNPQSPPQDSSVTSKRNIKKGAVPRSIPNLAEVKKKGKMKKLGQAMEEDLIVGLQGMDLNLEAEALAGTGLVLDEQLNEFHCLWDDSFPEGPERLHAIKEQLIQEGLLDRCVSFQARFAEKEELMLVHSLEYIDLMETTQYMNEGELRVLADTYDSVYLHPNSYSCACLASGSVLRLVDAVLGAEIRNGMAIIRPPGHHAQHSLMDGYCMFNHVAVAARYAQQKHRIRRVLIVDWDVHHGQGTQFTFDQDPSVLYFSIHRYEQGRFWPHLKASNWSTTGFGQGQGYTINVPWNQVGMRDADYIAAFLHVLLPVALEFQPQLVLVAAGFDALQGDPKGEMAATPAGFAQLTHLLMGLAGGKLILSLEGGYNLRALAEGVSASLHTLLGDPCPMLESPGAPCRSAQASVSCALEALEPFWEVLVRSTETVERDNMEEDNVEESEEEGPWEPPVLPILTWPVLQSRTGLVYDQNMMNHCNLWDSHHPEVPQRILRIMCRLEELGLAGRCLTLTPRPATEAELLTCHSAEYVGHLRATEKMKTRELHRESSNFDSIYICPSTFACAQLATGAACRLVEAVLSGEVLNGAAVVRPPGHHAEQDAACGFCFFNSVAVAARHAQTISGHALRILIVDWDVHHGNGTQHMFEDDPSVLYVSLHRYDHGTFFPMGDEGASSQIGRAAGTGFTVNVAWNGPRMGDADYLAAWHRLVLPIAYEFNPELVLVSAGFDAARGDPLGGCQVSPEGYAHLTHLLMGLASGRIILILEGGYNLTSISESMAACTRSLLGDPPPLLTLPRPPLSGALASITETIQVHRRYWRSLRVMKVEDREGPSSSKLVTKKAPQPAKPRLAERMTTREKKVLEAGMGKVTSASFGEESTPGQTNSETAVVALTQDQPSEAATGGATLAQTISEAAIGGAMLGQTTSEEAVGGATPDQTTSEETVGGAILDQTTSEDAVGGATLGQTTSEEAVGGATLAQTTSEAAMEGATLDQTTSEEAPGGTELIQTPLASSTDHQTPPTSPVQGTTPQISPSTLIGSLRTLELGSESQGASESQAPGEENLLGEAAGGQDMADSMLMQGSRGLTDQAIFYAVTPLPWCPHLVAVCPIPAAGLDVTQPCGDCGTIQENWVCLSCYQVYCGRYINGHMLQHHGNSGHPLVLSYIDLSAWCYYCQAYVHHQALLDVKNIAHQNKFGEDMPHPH
Experimental: Enzyme inhibition assays were performed by the Reaction Biology Corporation, Malvern, PA (http://www.reactionbiology.com).

[3] = tested on: CT-2A astrocytoma cells; experiment: Orthotopic CT-2A tumor model, IVIS; type: in vivo, mouse; conditions: 10 mg/kg intraperitoneally
Experimental: Animals were imaged using an IVIS to monitor tumor growth and target expression changes. Initially, animals were anesthetized with isoflurane prior to imaging to minimize movement artifacts. D-luciferin (150 mg/kg) was then administered via an intraperitoneal injection. After 60 s, animals were positioned on the imaging platform, and images were acquired with a 10-s exposure. Experimental data were collected and quantified for fluorescence or bioluminescence signals by using Living Image software in the IVIS system. After each imaging session, animal ID, imaging parameters, and imaging time were recorded for subsequent analysis.
For orthotopic inoculation, CT-2A cells (1 × 10^5) or CT-2A-R (2 × 10^5) were suspended in 4 μL of DMEM and implanted into the brain of B6 mice. PT#3-R cells (5 × 10^5) were suspended in 4 μL of DMEM and implanted into the brain of SCID mice. After cell implantation, mice were monitored daily for survival, and their body weight was measured every 3 days starting from the seventh day. The oral vehicle consisted of 40% ethyl oleate, 12% lecithin, 20% propylene glycol, and 28% Triton X-100. Mice were administered 5 μL of vehicle per gram of body weight along with 50 mg/kg TMZ or a combination of TMZ and compound 1. […] Upon the natural death of the mice, brains were extracted and entrusted to BioTools for sectioning and HE staining.

[4] = Pharmacokinetic study in Sprague-Dawley rats; type: in vivo; conditions: male, plasma, rat, 10 mg/kg intravenous
Experimental: The pharmacokinetic study protocol of compound 1 was approved by the IACUC of TMU (LAC-2022-0452), in compliance with National Research Council’s Guide for the Care and Use of Laboratory Animal. 8 Week-old male Sprague–Dawley rats were provided by BioLASCO (Taipei, Taiwan). Each rat (n = 3) was intravenously administered with a single dosage of 10 mg/kg A089 through the jugular vein. Blood samples were collected from the jugular vein at predetermined time points: 0.03, 0.08, 0.25, 0.5, 1, 2, 4, 6, 8, 12, and 24 h postadministration. The blood samples were centrifuged at 4 °C to obtain the plasma samples. For protein precipitation, an aliquot of acetonitrile was added to the plasma, followed by centrifugation and filtration using a 0.22 μm filter. The filtrate was then analyzed by ultraperformance liquid chromatography–tandem mass spectrometry (UPLC–MS/MS, TQ-XS, Waters Corp., Manchester, UK). Pharmacokinetic parameters were calculated by using a noncompartmental analysis with Phoenix WinNonlin software (Certara, Princeton, NJ, USA).

In the case of `O=C(/C=C/c1ccc(CNC[C@H]2CN(c3ccc(N4CCOCC4)c(F)c3)C(=O)O2)cc1)NO` [compound 1, (S,E)-3-(4-((((3-(3-Fluoro-4-morpholinophenyl)-2-oxooxazolidin-5-yl)methyl)ami-no)methyl)phenyl)-N-hydroxyacrylamide], the IC50 [1] is reported as 30.6 ± 0.56 µM, the IC50 [2] is reported as 0.106 µM and the “growth of orthotopic tumors (IVIS)” value [3] is reported as “effectively inhibited the growth of orthotopic tumors”. The AUC(0-inf) at 24 h [4] was 2280 ± 760 ng·h/mL, the AUC(0-t) at 24 h [4] was 2010 ± 530 ng·h/mL and the C0 at 24 h [4] was 12300 ± 8130 ng/mL. The MRT inf at 24 h [4] was 7.91 ± 3.11 h, the Vd at 24 h [4] was 76.2 ± 12.3 L/kg and the clearance at 24 h [4] was 78 mL/min/kg. For the same compound, the half-life at 24 h [4] was 12 ± 4.42 h.
